# Measured values from ChEMBL document CHEMBL5120756, “Mycobacterial Membranes as Actionable Targets for Lipid-Centric Therapy in Tuberculosis” (J Med Chem, 2022).
# System: Salmonella typhimurium
# Experiment: Antibacterial activity against salmonella typhimurium infected in gentamicin-treated mouse RAW264.7 macrophages assessed as reduction of bacterial accumulation with macrophage measured after 17.5 hrs of post infection by SAFIRE assay
# Type: functional, organism-based, Salmonella enterica subsp. enterica serovar Typhimurium
# Conditions: Salmonella enterica, RAW264.7, 17.5 h
compound,measurement,value
OC(COc1ccc(C2C3CC4CC(C3)CC2C4)cc1)CN1CCCCC1 (stereo unspecified),IC50,120 nM
